The Kd is the constant that tells how readily two partners part at equilibrium. Lower therefore signals tighter binding.

The values that follow come from publication PMC4646407, “Tripartite ATP-independent Periplasmic (TRAP) Transporters Use an Arginine-mediated Selectivity Filter for High Affinity Substrate Binding” (The Journal of Biological Chemistry, 2015).

In test [1] the target is T1, SiaP (SiaP-His6) (Haemophilus influenzae, UniProt P44542).
T1 construct: C-terminal His6 tag; expressed in E. coli BL21(DE3) pLysS (pET21b, pAH16) with native signal peptide, purified from periplasm
In words: intrinsic tyrosine fluorescence titration. Type of test: binding. The note with it: 50 mM Tris/HCl, pH 8.0; 0.05 μM protein.

The target of test [2] is SiaP (SiaP-His6) (Haemophilus influenzae, UniProt P44542, R170K/F193W). The note with it: 50 mM Tris/HCl, pH 8.0; 0.5 μM protein.
The target in test [3] is SiaP (SiaP-His6) (Haemophilus influenzae, UniProt P44542, F193W). The note with it: 50 mM Tris/HCl, pH 8.0.
SiaP (SiaP-His6) (Haemophilus influenzae, UniProt P44542, F193W), sequence (P44542 24-329 F193W): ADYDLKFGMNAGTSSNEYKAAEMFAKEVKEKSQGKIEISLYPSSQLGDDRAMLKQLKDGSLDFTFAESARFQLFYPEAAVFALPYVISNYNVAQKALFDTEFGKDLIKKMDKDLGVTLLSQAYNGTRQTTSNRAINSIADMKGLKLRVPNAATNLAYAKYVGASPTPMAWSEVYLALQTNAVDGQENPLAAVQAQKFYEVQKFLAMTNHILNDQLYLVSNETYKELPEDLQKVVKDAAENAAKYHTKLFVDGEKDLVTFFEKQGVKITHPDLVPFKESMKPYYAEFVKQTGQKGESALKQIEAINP

T1 sequence (P44542 24-329): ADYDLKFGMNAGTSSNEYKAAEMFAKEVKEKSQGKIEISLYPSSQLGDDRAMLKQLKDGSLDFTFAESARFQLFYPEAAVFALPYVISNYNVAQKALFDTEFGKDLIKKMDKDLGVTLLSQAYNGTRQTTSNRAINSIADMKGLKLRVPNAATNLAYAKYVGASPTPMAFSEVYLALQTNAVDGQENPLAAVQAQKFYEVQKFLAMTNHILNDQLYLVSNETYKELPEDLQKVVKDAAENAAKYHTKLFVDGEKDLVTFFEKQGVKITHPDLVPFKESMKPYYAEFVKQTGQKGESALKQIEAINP
SiaP (SiaP-His6) (Haemophilus influenzae, UniProt P44542, R170K/F193W), sequence (P44542 24-329 R170K/F193W): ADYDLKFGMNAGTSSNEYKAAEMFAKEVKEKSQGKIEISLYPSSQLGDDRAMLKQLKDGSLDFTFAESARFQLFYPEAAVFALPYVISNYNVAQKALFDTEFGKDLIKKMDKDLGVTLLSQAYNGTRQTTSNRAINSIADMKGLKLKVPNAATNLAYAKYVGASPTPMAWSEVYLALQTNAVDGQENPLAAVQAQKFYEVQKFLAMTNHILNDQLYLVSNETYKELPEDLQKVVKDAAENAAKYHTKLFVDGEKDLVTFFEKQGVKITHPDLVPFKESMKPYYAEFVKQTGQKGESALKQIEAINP

As for `CC(=O)N[C@H]1[C@H]([C@H](O)[C@H](O)CO)OC(O)(C(=O)O)C[C@@H]1O` (stereo partly drawn) [Neu5Ac], the equilibrium dissociation constant (Kd) at SiaP (SiaP-His6) [1] turned out to be 0.14 ± 0.04 µM; at SiaP (SiaP-His6) [2], 38700 ± 8300 µM; on SiaP (SiaP-His6) [3], 1.21 ± 0.03 µM.
